Reference: patent publication US20060183221A1, “Method for neural differentiation of embryonic stem cells using protease passaging techniques” (priority 2003, published 2006)

How the values were obtained:
[1] = system: Mouse neuroblastoma (F-11) cells; assay: Induction of apoptosis in mouse neuroblastoma cells (Hoechst 33258 staining of condensed nuclei); type: cell-based; conditions: 24 hours
Procedure: Mouse neuroblastoma (F-11) cells were incubated for 24 hours in 0.1, 0.2, 0.5, or 1.0 μM of laurylgallate (Aldrich). Apoptosis was determined by punctate staining of condensed nuclei with Hoechst 33258 (Sigma, […] medium for 30 minutes at room temperature).

SSEA4 selected HESCs [2] = assay: Neural differentiation of SSEA4 selected bulk passaged HESCs as serum free embryoid bodies with or without MEDII and S18, seeded and immunostained; type: cell-based, human
Procedure: Cultures were treated with or without 10 μM S18 from day 13 to day 17. After S18 treatment, serum free embryoid bodies were washed several times and cultured further until day 18. Serum free embryoid bodies were cut into pieces to seed down to polyornithine/laminin coated slides.
In the presence of MEDII, a consistently high proportion of the culture contained TH+ neurons, with the background of non-neural regions that was negative for the neuronal marker βIII-Tubulin typically lower than 10%. It was not determined whether the effect of MEDII induced more efficient neuralization or inhibited the generation of non-neural cell types. […] This proportion was determined by analysis of double staining of neural extensions for βIII-Tubulin and TH (FIG. 18), and overlaying Hoffman images with TH immunofluorescence (FIG. 19). The increase in the proportion of TH+ neurons in MEDII treated differentiations appeared to be due to the overall increase in neuronal differentiation, rather than an effect on the proportion of neurons that were dopaminergic, because the proportions of neurons that were TH+ in differentiations not exposed to MEDII was equally high. Another marker of DA cells, VMAT, was expressed in similarly high proportions of cells within the sfEBM cultures. TH+/VMAT−, TH−/VMAT+ and TH+/VMAT+ cells were observed (FIG. 20), possibly indicating temporal variability in the induction of expression of these markers prior to being co-expressed.

[3] = system: differentiating mouse ES cells (ES-J1); assay: Apoptosis (TUNEL staining) in differentiating mouse ES cells incubated with ceramide analogs; type: cell-based; conditions: 15 hours with 75 μM S16 or S18, or 35 μM C2-ceramide
Procedure: In vitro neural differentiation of mouse ES cells (ES-J1, ES-D3) followed a serum deprivation protocol as described previously (Hancock, et al., 2000, Biochem. Biophys. Res. Commun. 271: 418-421). The differentiation stages are outlined in FIG. 2. Briefly, ES cells were grown on gamma-irradiated feeder fibroblasts for four days in Knockout DMEM/15% Knockout serum replacement, supplemented with ESGRO (LIF; Chemicon; Cat No. ESG1106) at a concentration of […] medium. ES cells were then grown for another four days on gelatin-coated bacterial culture dishes without a fibroblast feeder layer, and were then grown for three days in Knockout DMEM/15% heat-inactivated ES qualified Fetal Bovine Serum, supplemented with 10^3 units LIF per ml of medium. Upon trypsinization, ES cells were transferred to bacterial culture dishes without gelatin, and embryoid body (EB) formation was induced for four days in Knockout DMEM/10% heat-inactivated ES qualified FBS without LIF (EB4 stage). On the fifth day, floating and loosely attached EBs were rinsed off and transferred to tissue culture dishes. The EBs were allowed to attach to the tissue culture dish surface by incubation for another 24 hours in Knockout DMEM with 10% heat-inactivated ES qualified fetal bovine serum. Neural differentiation due to serum deprivation was induced by cultivation of the EBs for three days in DMEM/F12 (50/50), supplemented with 1×N2 (Invitrogen/Life Technologies; Cat No. 17502, dilution of 1: 100) but without serum (EB8 stage). Serum-deprived EBs were then trypsinized, plated on poly-L-ornithine/laminin-coated tissue culture dishes and grown for four days in DMEM/F12 (50/50), supplemented with N2 and 10 ng/ml FGF-2, but without serum. his incubation period is referred to as neuroprogenitor (NP) stage due to commitment of neuroepithelial precursor cells to neuroprogenitor cells. These cells have committed during the EB stages and were expanded during the NP stage. NPs grown for 48 hours upon replating of trypsinized EBs were referred to as the NP2 stage. On the fifth day of NP formation, the medium was changed to Neurobasal (Invitrogen/Life Technologies; Cat No. 21103-049), with 5% heat-inactivated FBS, and the cells were incubated for another seven days. During this time, NPs fully differentiate to glial cells and neurons. Cells cultured for 24 hours or 96 hours upon changing the medium were referred to as the D1 or D4 stage, respectively.
ES cells were cultured and differentiated to the EB4, EB8, NP2, or D4 stage following the protocol as described above. The ceramide analog S18 was dissolved in ethanol at a concentration of 100 mM and then added to the cells at a final concentration of 75 μM in medium. The cells at the EB8 stage were incubated for 48 hours in the presence of the ceramide analog and were then transplanted into mouse brains.
Differentiating ES cells were grown on cover slips and fixed with 4% paraformaldehyde in phosphate-buffered saline (PBS). Fixed cells were permeabilized with 0.5% Triton X-100 in PBS for 5 minutes at room temperature and unspecific binding sites were saturated by incubation with 3% ovalbumin in PBS for 1 hour at 37° C. The cover slips were then incubated with 5 μg/ml primary antibody (anti-ceramide clone 15B4 mouse IgM, Alexis; anti-PAR-4 rabbit IgG, Santa Cruz; anti-PCNA rabbit IgG, Santa Cruz; anti-nestin clone 401 rat IgG, BD Pharmingen) in 0.1% ovalbumin/PBS, followed by incubation with the appropriate fluorescence-labeled secondary antibody (5 μg/ml Alexa 546 conjugated anti-mouse IgG, Molecular Probes; Alexa 488 conjugated anti-rabbit IgG, Molecular Probes, Cy3 conjugated anti-mouse IgM, Jackson) for 2 hours at 37° C. The nuclei were stained by treatment with 2 μg/ml Hoechst 33258 in PBS for 30 minutes at room temperature. Apoptotic nuclei were stained using the fluorescein FragEL TUNEL assay (Oncogene) according to the manufacturer's instructions. […]

SSEA4 selected HESCs [4] = conditions: 4 ng/ml FGF2 and 100 μM proline
Procedure: Essentially serum free embryoid bodies were generated from bulk passaged monolayer HESC colonies as described in Example 6, in the presence of 4 ng/ml FGF2 and 100 μM Proline, or in 4 ng/ml FGF2 with MEDII conditioned medium as a positive control.
Serum free embryoid bodies were cultured in suspension for 17 days, and were cut into pieces and seeded onto polyornithine/laminin coated slides at day 10 or 17. The explants were cultured on slides for 5 days prior to fixation at day 15 or 22, for immunostaining with anti-βIII-Tubulin and anti-Tyrosine Hydroxylase antibodies.

SSEA4 selected HESCs [5] = system: SSEA4 selected HESCs
From the text: Essentially serum free embryoid bodies were generated from bulk passaged monolayer HESC colonies as described in Example 6, in the presence of the media set out below.

SSEA4 selected HESCs [6] = assay: Differentiation of SSEA4 selected HESCs as serum free embryoid bodies in differing media formulations (cytospin counts, immunostaining); type: cell-based, human; conditions: L-proline conditions
Procedure: Serum free embryoid bodies were cultured in suspension for 3 weeks. Morphological differences were apparent between the cultures. […] Serum free embryoid bodies were cultured in suspension, and were cut into pieces, seeded onto polyornithine/laminin coated slides at day 21 and fixed at day 25. […] This was indicative that this differentiation protocol utilizes an intrinsic neural differentiation capacity of HESC, rather than exogenous neural inducing factors.
Cytospins of disaggregated serum free embryoid bodies were performed at day 21 to enable the counting of the proportion of βIII-Tubulin or TH positive cells generated in the different media formulations. […]
To count proportions of neurons in serum free embryoid bodies, cytospins were immunostained with anti-βIII-Tubulin (Sigma, #T8660) or mouse anti-TH monoclonal antibodies (PeIFreez Biologicals, #P80101-0), detected with alexa-488 conjugated anti-mouse secondary antibody and nuclei were stained with DAPI. Two color fluorescent images were taken under 10× magnification and merged, and double positive signals were scored as neuronal cell bodies, or TH+ neuronal cell bodies against the total nuclei count. A minimum of three randomly sampled fields and 250 or 100 nuclei for βIII-Tubulin or TH, respectively, were counted for each condition. […]

Work on `CCCCCCCCCCCCOC(=O)c1cc(O)c(O)c(O)c1` [laurylgallate, n-dodecyl ester of 3,4,5-trihydroxybenzoic acid] yielded a cells undergoing apoptosis ([1]; 0.5 μM) of 50% and a cells undergoing apoptosis ([1]; 1.0 μM) of 100%.
With FGF2: fibroblast growth factor 2 the “area of seeded serum free embryoid body containing TH+ neurons” value (SSEA4 selected HESCs [2]; 10 μM S18 day 13 to 17, seeded day 18, fixed day 23) was 30-70% and the “proportion of neurons expressing TH” value (SSEA4 selected HESCs [2]; βIII-Tubulin/TH double staining, seeded day 18, fixed day 23) was “very high proportion”.
In the case of `CCCCCCCCCCCCC/C=C/[C@@H](O)[C@H](CO)NC(C)=O` [C2-ceramide, N-acetyl sphingosine, reference compound], the TUNEL stained cells ([3]; EB8 stage) is reported as 45±10% and the TUNEL stained cells ([3]; NP2 stage) is reported as 70±10%.
`CCCCCCCCCCCCCCCC(=O)NC(CO)CO` [S16, N-(2-hydroxy-1-(hydroxymethyl)ethyl)-palmitoylamide] gave a TUNEL stained cells ([3]; EB8 stage) of 45±10% and a TUNEL stained cells ([3]; NP2 stage) of 70±10%.
`O=C(O)[C@@H]1CCCN1` [proline, L-proline] was tested, and the “seeded EB pieces that did not exhibit large networks of βIII-Tubulin+ cells” value (SSEA4 selected HESCs [4]) was “less than 30%”, the “neurons generated that were dopaminergic (co-expressing βIII-Tubulin and TH)” value (SSEA4 selected HESCs [4]; day 22) was “greater than 90%” and the “maintained in a proliferative state after proliferation of neural rosette structures” value (SSEA4 selected HESCs [5]; 50 μM L-proline) was 34 weeks. For the same molecule, the “maintained in a proliferative state in suspension culture after initial derivation” value (SSEA4 selected HESCs [5]; 50 μM L-proline) was “more than 7 weeks”, the “appearance of sfEBPs with low cell death and distinct neural rosette structures/folds” value (SSEA4 selected HESCs [5]; 50 μM Proline condition, around 3 weeks) was “noticeably enhanced” and the “TH+ neurons, of the cells in an embryoid body in suspension” value (SSEA4 selected HESCs [6]) was “greater than 50%”.
